Patent publication US12012574B2, “Process for removing dry surface biofilm” (Whiteley Corporation Pty. Ltd., priority 2013, dated 2024)

Legend:
[1] = tested on: 12 day dry surface biofilm (Staphylococcus aureus ATCC 25923); assay: Initial screening using TOC to assess removal of dry surface biofilm; type: cell-based; details: for TOC Coupons with Biofilm: biofilm coated Pyrex coupons after cleaning, Table 14 dilution; for TOC due to biofilm: biofilm coupon TOC minus blank coupon TOC; for TOC Blank coupons: fresh clean coupons exposed to test product at Table 14 dilution; for % Reduction (TOC): relative to negative control (Milli-Q water)
[2] = tested on: 12 day dry surface biofilm; assay: Protein removal from dry surface biofilm coated coupons (BCA assay); type: cell-based, Staphylococcus aureus
Method: 12 day biofilm was grown on PET coupons following the methodology of Example 8. The rods containing the biofilm coated coupons were then removed and any loosely bound biofilm washed off with Milli-Q water as described in Example 8.
One rod holding three dry surface biofilm coated coupons was then placed into 30 ml of a solution of Example 9 (17 g/litre) for 10 minutes. A second rod was placed into 30 ml of a solution of Matrix (1:50 dilution), and a third rod placed into 30 ml Milli-Q water to serve as a positive control. An additional rod, holding 3 uncoated coupons was sterilized and used as a negative control.
After 10 minutes, each rod was placed into 30 ml of 1M sodium hydroxide solution to elute off all remaining protein. Aliquots from each solution were then taken and tested for protein using a Bicinchroninic Acid (BCA) assay, using a micro BCA test kit (Sigma Aldrich).
In order to perform the BCA assay, a series of standard solutions of bovine serum albumin were prepared to produce a standard curve. […] The samples were then incubated for 60 minutes at 60° C., and the absorbance at 562 nm read using a spectrophotometer (see Table 17). […]

[3] = tested on: 12 day dry surface biofilm; assay: Bacterial reduction from 12 day dry surface biofilm, clean and dirty conditions (Examples 15, 16); type: cell-based, Staphylococcus aureus; details: for Log reduction: 5 minute contact time
Method: The bacterial reductions obtained from a 12 day dry surface biofilm were assessed under clean conditions using Example 9, Chlorclean tablets and a generic SDIC tablet
Each test product was dissolved in water.
Coupons coated in 12-day dry surface biofilm were produced as per Example 8. 2 ml of each test solution, followed by 2 ml of water were added to the wells in a tissue culture plate.
After a 5 minute contact time, coupons were removed from the disinfectant solutions, rinsed twice using 30 ml phosphate buffered saline for 5 seconds, and then placed into 5 ml tubes containing 2 ml of a neutralizer solution comprising 6% Tween 80 plus 1% sodium thiosulfate plus 5% bovine serum plus 10% Bovine Serum Albumin.
The tubes were sonicated for 20 minutes and then vortexed for 2 minutes. Serial 10-fold dilutions were then made and 100 ul of neat, 10^−1, 10^−2, 10^−3 and 10^−4 dilutions were plated on Horse Blood Agar plates. The plates were incubated at 37° C. overnight and then enumerated.
Control coupons, not exposed to disinfectant were similarly worked up to allow the log reductions to be calculated
The bacterial reductions obtained from a 12 day dry surface biofilm were assessed under dirty conditions using Example 9, Chlorclean tablets and a generic SDIC tablet. Each test product was dissolved in artificial hard water containing 340 ppm CaCO3 to which was added 5% Bovine Calf Serum.
Coupons coated in 12-day dry surface biofilm were produced as per Example 8. 2 ml of each test solution, followed by 2 ml of hard water to which was added 5% bovine calf serum were added to the wells in a tissue culture plate.
Control coupons, not exposed to disinfectant were similarly worked up to allow the log reductions to be calculated.

[4] = tested on: dry surface biofilm of S. aureus; assay: Kill of organisms within dry surface biofilm (Example 18); type: cell-based, Staphylococcus aureus
planktonic S. aureus = assay: Disinfectant efficacy against planktonic bacteria (Example 17); type: cell-based, Staphylococcus aureus; details: dirty conditions (5% bovine calf serum), 5 minutes contact time
[5] = tested on: Staphylococcus aureus dry surface biofilm; details: solution containing 20,000 ppm available chlorine; cited from earlier work
[6] = absence of biological soil, five minutes contact time
[7] = dirty conditions (presence of an organic soil), 5 minutes contact time

| Compound | TOC Coupons with Biofilm [1] [µg] | TOC due to biofilm [1] [µg] | TOC Blank coupons [1] [µg] | % Reduction (TOC) [1] [%] | Percentage reduction ([2]; Example 14: protein, shorter contact time (not given)) | Neutraliser control ([3]; clean conditions) | Log reduction ([3]; clean conditions) [log] | Neutraliser control ([3]; dirty conditions) | Log reduction ([3]; dirty conditions: hard water 340 ppm CaCO3 with 5% Bovine Calf Serum) [log] | log10 reduction of biofilm viability [4, 6] | log10 reduction of biofilm viability ([4]; absence of biological soil, five minutes contact time, listed as SIDC) [log10] | log10 reduction of biofilm viability [4, 7] | log10 reduction / activity (planktonic S. aureus) | Percentage protein reduction ([2]; Example 13: 10 minute contact time, calculated from positive control (Milli-Q water)) | survival after exposure [5] |
| --- | --- | --- | --- | --- | --- | --- | --- | --- | --- | --- | --- | --- | --- | --- | --- |
| [Na+].[OH-] [1M NaOH, sodium hydroxide] | 0.16 | -0.01 | 0.17 | 100 |  |  |  |  |  |  |  |  |  |  |  |
| O=c1nc([O-])n(Cl)c(=O)n1Cl.[Na+] [SDIC, sodium diisocyanurate] |  |  |  |  | 17.65 | 0.045 | 6.55 | 0.018 | 0.007 | 2.85 log10 | 3 | 0.03 log10 |  |  |  |
| OO [hydrogen peroxide] |  |  |  |  |  |  |  |  |  | zero and no effect |  | zero | completely deactivated |  |  |
| OCl [sodium hypochlorite, Sodium hypochlorite] | 1.87 | 1.53 | 0.34 | 79 |  |  |  |  |  |  |  |  |  | 11.50 | still showing survivors |
